From the supplement of paper PMC10307832

Columns and labels:
Test in all cases: relative viability (nuclei count vs DMSO), 5 days (fraction); higher = more cells survive
NCI-H1355 = system: NCI-H1355
How it was run: (§1)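 Lung cancer cell lines in 1536-well plates got either a single drug or a fixed anchor-drug dose together with five library-drug doses (not always all listed) in √10 steps, by pin tool, on the day after seeding. Nuclei were counted after 5 days, and relative viability is the treated-to-vehicle ratio of nuclei counts. Values are medians of duplicate plates.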

NCI-H2085 = system: NCI-H2085
How it was run: as §1

NCI-H1915 = system: NCI-H1915
How it was run: as §1

LC-2-ad = system: LC-2-ad
How it was run: as §1

NCI-H23 = system: NCI-H23
How it was run: as §1

NCI-H1651 = system: NCI-H1651
How it was run: as §1

NCI-H2126 = system: NCI-H2126
How it was run: as §1

A-427 = system: A-427
How it was run: as §1

COR-L23 = system: COR-L23
How it was run: as §1

SK-MES-1 = system: SK-MES-1
How it was run: as §1

NCI-H1993 = system: NCI-H1993
How it was run: as §1

COR-L 105 = system: COR-L 105
How it was run: as §1

NCI-H647 = system: NCI-H647
How it was run: as §1

NCI-H322M = system: NCI-H322M
How it was run: as §1

HCC-44 = system: HCC-44
How it was run: as §1

NCI-H2087 = system: NCI-H2087
How it was run: as §1

NCI-H520 = system: NCI-H520
How it was run: as §1

H3255 = system: H3255
How it was run: as §1

RERF-LC-KJ = system: RERF-LC-KJ
How it was run: as §1

## Cc1cn(-c2cc(NC(=O)c3ccc(C)c(Nc4nccc(-c5cccnc5)n4)c3)cc(C(F)(F)F)c2)cn1 [Nilotinib] + CS(=O)(=O)CCNCc1ccc(-c2ccc3ncnc(Nc4ccc(OCc5cccc(F)c5)c(Cl)c4)c3c2)o1 [Lapatinib] (partner 2 µM)
NCI-H1355; first compound 0.001 µM
  relative viability: 1.07
NCI-H1355; first compound 0.003162 µM
  relative viability: 1.32
NCI-H1355; first compound 0.01 µM
  relative viability: 1.2
NCI-H1355; first compound 0.03162 µM
  relative viability: 1.12
NCI-H1355; first compound 0.1 µM
  relative viability: 0.401
NCI-H2085; first compound 0.001 µM
  relative viability: 0.822
NCI-H2085; first compound 0.003162 µM
  relative viability: 0.817
NCI-H2085; first compound 0.01 µM
  relative viability: 0.748
NCI-H2085; first compound 0.03162 µM
  relative viability: 0.66
NCI-H2085; first compound 0.1 µM
  relative viability: 0.599
NCI-H1915; first compound 0.001 µM
  relative viability: 0.986
NCI-H1915; first compound 0.003162 µM
  relative viability: 1.13
NCI-H1915; first compound 0.01 µM
  relative viability: 1.22
NCI-H1915; first compound 0.03162 µM
  relative viability: 0.98
NCI-H1915; first compound 0.1 µM
  relative viability: 0.517
LC-2-ad; first compound 0.001 µM
  relative viability: 0.901
LC-2-ad; first compound 0.003162 µM
  relative viability: 1.29
LC-2-ad; first compound 0.01 µM
  relative viability: 1.05
LC-2-ad; first compound 0.03162 µM
  relative viability: 0.894
LC-2-ad; first compound 0.1 µM
  relative viability: 0.293
NCI-H23; first compound 0.001 µM
  relative viability: 1.01
NCI-H23; first compound 0.003162 µM
  relative viability: 1.13
NCI-H23; first compound 0.01 µM
  relative viability: 1.4
NCI-H23; first compound 0.03162 µM
  relative viability: 0.87
NCI-H23; first compound 0.1 µM
  relative viability: 0.704
NCI-H1651; first compound 0.001 µM
  relative viability: 0.815
NCI-H1651; first compound 0.003162 µM
  relative viability: 0.803
NCI-H1651; first compound 0.01 µM
  relative viability: 1.06
NCI-H1651; first compound 0.03162 µM
  relative viability: 0.737
NCI-H1651; first compound 0.1 µM
  relative viability: 0.359
NCI-H2126; first compound 0.001 µM
  relative viability: 0.729
NCI-H2126; first compound 0.003162 µM
  relative viability: 0.813
NCI-H2126; first compound 0.01 µM
  relative viability: 0.664
NCI-H2126; first compound 0.03162 µM
  relative viability: 0.858
NCI-H2126; first compound 0.1 µM
  relative viability: 0.507
A-427; first compound 0.001 µM
  relative viability: 1.05
A-427; first compound 0.01 µM
  relative viability: 1.13
A-427; first compound 0.03162 µM
  relative viability: 1.08
A-427; first compound 0.1 µM
  relative viability: 0.211
COR-L23; first compound 0.001 µM
  relative viability: 0.834
COR-L23; first compound 0.003162 µM
  relative viability: 1.53
COR-L23; first compound 0.01 µM
  relative viability: 1.7
COR-L23; first compound 0.03162 µM
  relative viability: 0.822
COR-L23; first compound 0.1 µM
  relative viability: 0.825
SK-MES-1; first compound 0.003162 µM
  relative viability: 0.663
SK-MES-1; first compound 0.01 µM
  relative viability: 0.665
SK-MES-1; first compound 0.03162 µM
  relative viability: 0.541
SK-MES-1; first compound 0.1 µM
  relative viability: 0.557
NCI-H1993; first compound 0.001 µM
  relative viability: 0.797
NCI-H1993; first compound 0.003162 µM
  relative viability: 0.863
NCI-H1993; first compound 0.01 µM
  relative viability: 0.77
NCI-H1993; first compound 0.03162 µM
  relative viability: 0.874
NCI-H1993; first compound 0.1 µM
  relative viability: 0.651
COR-L 105; first compound 0.001 µM
  relative viability: 0.418
COR-L 105; first compound 0.01 µM
  relative viability: 0.375
COR-L 105; first compound 0.03162 µM
  relative viability: 0.352
COR-L 105; first compound 0.1 µM
  relative viability: 0.286
NCI-H647; first compound 0.001 µM
  relative viability: 0.978
NCI-H647; first compound 0.003162 µM
  relative viability: 1.42
NCI-H647; first compound 0.03162 µM
  relative viability: 0.672
NCI-H647; first compound 0.1 µM
  relative viability: 0.723
NCI-H322M; first compound 0.001 µM
  relative viability: 0.557
NCI-H322M; first compound 0.003162 µM
  relative viability: 0.515
NCI-H322M; first compound 0.03162 µM
  relative viability: 0.596
NCI-H322M; first compound 0.1 µM
  relative viability: 0.649
HCC-44; first compound 0.001 µM
  relative viability: 0.994
HCC-44; first compound 0.003162 µM
  relative viability: 1.09
HCC-44; first compound 0.01 µM
  relative viability: 0.822
HCC-44; first compound 0.03162 µM
  relative viability: 0.966
HCC-44; first compound 0.1 µM
  relative viability: 0.869
NCI-H2087; first compound 0.001 µM
  relative viability: 0.62
NCI-H2087; first compound 0.003162 µM
  relative viability: 1.21
NCI-H2087; first compound 0.01 µM
  relative viability: 1.17
NCI-H2087; first compound 0.03162 µM
  relative viability: 0.686
NCI-H2087; first compound 0.1 µM
  relative viability: 0.289
NCI-H520; first compound 0.001 µM
  relative viability: 0.678
NCI-H520; first compound 0.01 µM
  relative viability: 0.927
NCI-H520; first compound 0.03162 µM
  relative viability: 0.707
NCI-H520; first compound 0.1 µM
  relative viability: 0.383
H3255; first compound 0.001 µM
  relative viability: 0.259
H3255; first compound 0.003162 µM
  relative viability: 0.224
H3255; first compound 0.01 µM
  relative viability: 0.236
H3255; first compound 0.03162 µM
  relative viability: 0.24
H3255; first compound 0.1 µM
  relative viability: 0.217
RERF-LC-KJ; first compound 0.001 µM
  relative viability: 0.874
RERF-LC-KJ; first compound 0.003162 µM
  relative viability: 0.986
RERF-LC-KJ; first compound 0.01 µM
  relative viability: 0.977
RERF-LC-KJ; first compound 0.03162 µM
  relative viability: 0.882
RERF-LC-KJ; first compound 0.1 µM
  relative viability: 0.888
